Measured values from ChEMBL document CHEMBL4619731, “Identification of a new class of non-electrophilic TRPA1 agonists by a structure-based virtual screening approach” (Bioorg Med Chem Lett, 2020).

Target: Transient receptor potential cation channel subfamily A member 1 (Homo sapiens) (UniProt O75762)
Assay: Agonist activity at TRPA1 (unknown origin) at 1000 uM relative to AITC

Chain of Transient receptor potential cation channel subfamily A member 1 (Homo sapiens) (O75762 whole entry): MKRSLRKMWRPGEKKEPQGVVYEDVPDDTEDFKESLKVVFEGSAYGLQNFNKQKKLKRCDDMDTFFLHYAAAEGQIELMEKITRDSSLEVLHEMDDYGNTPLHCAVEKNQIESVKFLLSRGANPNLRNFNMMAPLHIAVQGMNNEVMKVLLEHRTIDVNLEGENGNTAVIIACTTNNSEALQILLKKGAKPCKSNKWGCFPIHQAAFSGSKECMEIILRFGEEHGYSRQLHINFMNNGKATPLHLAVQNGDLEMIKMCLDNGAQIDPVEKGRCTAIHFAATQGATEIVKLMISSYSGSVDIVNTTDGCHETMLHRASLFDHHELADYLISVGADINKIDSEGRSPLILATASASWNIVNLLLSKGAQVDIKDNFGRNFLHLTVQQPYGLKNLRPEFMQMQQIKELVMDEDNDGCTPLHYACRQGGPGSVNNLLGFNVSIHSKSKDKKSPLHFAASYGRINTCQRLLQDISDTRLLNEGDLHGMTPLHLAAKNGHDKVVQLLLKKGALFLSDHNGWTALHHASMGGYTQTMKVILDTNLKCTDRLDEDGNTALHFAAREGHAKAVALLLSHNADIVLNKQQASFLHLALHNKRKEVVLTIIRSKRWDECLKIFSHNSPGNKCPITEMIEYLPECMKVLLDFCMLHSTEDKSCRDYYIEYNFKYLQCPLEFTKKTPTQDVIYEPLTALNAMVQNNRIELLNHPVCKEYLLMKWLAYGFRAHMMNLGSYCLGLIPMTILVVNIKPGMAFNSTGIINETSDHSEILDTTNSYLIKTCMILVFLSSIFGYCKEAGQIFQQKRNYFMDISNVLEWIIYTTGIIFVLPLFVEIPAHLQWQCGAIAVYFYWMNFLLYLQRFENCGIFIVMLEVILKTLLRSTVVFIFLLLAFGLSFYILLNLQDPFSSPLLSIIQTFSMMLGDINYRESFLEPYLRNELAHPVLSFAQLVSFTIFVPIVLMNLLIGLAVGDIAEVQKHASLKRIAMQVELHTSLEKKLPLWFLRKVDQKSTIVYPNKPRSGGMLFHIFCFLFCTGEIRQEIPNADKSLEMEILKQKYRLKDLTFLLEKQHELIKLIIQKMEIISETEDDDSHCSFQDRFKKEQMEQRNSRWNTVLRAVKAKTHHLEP

| SMILES | Activity [%] |
| --- | --- |
| COc1cc(C2OCC3C(c4cc(OC)c(O)c(OC)c4)OCC23)cc(OC)c1O (centres undefined) | 26 |
| CCCCCCCCOC(=O)CCC | 13 |
| CCCCCCCCCC(=O)OCC | 16 |
| CCCCCCCCC(=O)OC | 39 |
| CCCC(=O)OCCc1ccccc1 | 62 |
| CCCCCCCC(=O)OCCC(C)C | 12 |
| CCCC(=O)OCC(C)C | 19 |
| CCCCCCCCCCCCCCCC(=O)OC | 17 |
| CCCCCCCCCCCCCC(C)=O | 10 |
| CCOC(=O)CC(O)(CC(=O)OCC)C(=O)OCC | 18 |
| CCCCC(CC)CO (centres undefined) | 60 |
| CCCCCCCC1CCCC(=O)O1 (centres undefined) | 20 |
| CCCCCCCCC(C)=O | 11 |
| CC(=O)OC(C)C | 10 |
| OC[C@H]1O[C@H](O[C@H]2[C@H](O)[C@@H](O)[C@@H](O[C@H]3[C@H](O)[C@@H](O)C(O)O[C@@H]3CO)O[C@@H]2CO)[C@H](O)[C@@H](O)[C@@H]1O (some centres undefined) | 14 |
| CCCCCCCC(=O)OCC | 9 |
| CCCCCCCCCCCCCC(=O)O | 23 |
| CC(O)CO (centres undefined) | 12 |
| CCCCCCCC(=O)OC | 33 |
| CCCCCCCCCCCCCC(=O)OCC | 17 |
| CCCCCCCCC(=O)OCC | 12 |
| O=c1ccn([C@@H]2O[C@H](CO)[C@@H](O)[C@H]2O)c(=O)[nH]1 | 11 |
| CCCCCCCCCCO | 71 |
| CC(C)C(=O)OCCc1ccccc1 | 37 |
| CCCCCCCCCCCC(C)=O | 13 |

| SMILES | Activity [%] |
| --- | --- |
| CCCCCCCCCCCC(=O)OCC | 15 |
| C[C@@H]1O[C@@H](O[C@H]2[C@H](Oc3cc(O)c4c(c3)O[C@H](c3ccc(O)cc3)CC4=O)O[C@H](CO)[C@@H](O)[C@@H]2O)[C@H](O)[C@H](O)[C@H]1O | 20 |
| CCCCCCCCCC(=O)OC | 14 |
| CCCCCCCOC(C)=O | 8 |
| O=C(O[C@H]1Cc2c(O)cc(O)cc2O[C@@H]1c1ccc(O)c(O)c1)c1cc(O)c(O)c(O)c1 | 15 |
| CCCCCCCCCCC(C)=O | 13 |
| CC(=O)OCC(COC(C)=O)OC(C)=O | 17 |
| O=c1c(O[C@@H]2O[C@@H](CO)[C@H](O)[C@H]2O)c(-c2ccc(O)c(O)c2)oc2cc(O)cc(O)c12 | 41 |
| CCCCCCCC(=O)CC | 15 |
| CCCCCCCCCC(C)O (centres undefined) | 16 |
| CCCCCC(=O)OCCC(C)C | 16 |
| CCCCCCCC1CCC(=O)O1 (centres undefined) | 27 |
| CCCCCCCCCC(C)=O | 15 |
| CCCCCCCCCCCCO | 12 |
| CCOC(=O)c1ccco1 | 12 |
| CCCCCCCCCCCO | 20 |
| CCCCCCCCCC(=O)OCCC(C)C | 13 |
| CCCCCCCCOC(C)=O | 8 |
| O=c1cc(-c2ccc(O)cc2)oc2cc(O[C@@H]3O[C@H](CO)[C@@H](O)[C@H](O)[C@H]3O)c([C@@H]3O[C@H](CO)[C@@H](O)[C@H](O)[C@H]3O)c(O)c12 | 20 |
| CCCCCC(=O)OCC(C)C | 23 |
| CCCCC(CC)COC(=O)c1ccccc1O (centres undefined) | 14 |
| C/C=C/C(=O)C1=C(C)C=CCC1(C)C | 13 |
| Oc1cc(O)c2c(c1)O[C@H](c1ccc(O)c(O)c1)[C@H](O)[C@H]2c1c(O)cc(O)c2c1O[C@H](c1ccc(O)c(O)c1)[C@H](O)C2 | 22 |
| O=c1cc(-c2ccc(O)cc2)oc2c([C@@H]3O[C@H](CO)[C@@H](O)[C@H](O)[C@H]3O)c(O)cc(O)c12 | 15 |
